Key:
Assay type in all cases: cell-based
[1] = tested on: HCV replicon NK5.1-Gluc (genotype 1b); assay: Anti-HCV activity using HCV replicon NK5.1-Gluc (genotype 1b) in Huh 7.5.1 cells, luciferase readout; conditions: Hepatitis C virus, 72 h; Huh 7.5.1 cells with NK5.1-Gluc replicon, 3 days, Gaussia luciferase; read-out: HCV wt. GT-1b
[2] = tested on: JFH5a-Rluc-ad34 virus (HCV GT-2a); assay: Anti-HCV activity using HCVcc (JFH5a-Rluc-ad34 virus) in Huh 7.5.1 cells, Renilla luciferase readout; conditions: Hepatitis C virus, GT2A, Huh-7.5.1, 72 h, read-out: HCV wt. GT-2a
Experimental: <Experimental Example 1> Measurement of Anti-HCV Activity of Compounds of Examples Using HCVcc
Step 1: Cell Line and Cell Culture
Huh 7.5.1 cells were grown in Dulbecco's Modified Eagle's medium (DMEM; Gibco) supplemented with antibiotics (100 U/mL penicillin, 10 μg/mL streptomycin) and 10% heat-inactivated fetal bovine serum (ΔFBS; PEAK) in a CO2 incubator at 37° C. with […].
Huh7.5.1 cells were transfected with in vitro transcription RNA of JFH5a-Rluc-ad34, a derivative of JFH1 with adaptive mutations in E2 and p7 regions, by electroporation. JFH5a-Rluc-ad34 virus contains Renilla luciferase (Rluc), which is convenient for virus proliferation assay. The cell culture medium containing HCV was collected 3-5 days after the electroporation and then filtered through a […] pore size filter.
Step 3: Antiviral Activity Test Using Infectious HCV Particles
Huh 7.5.1 cells were inoculated with JFH5a-Rluc-ad34 virus and incubated for 4 hours. Four hours after the virus inoculation, the Huh7.5.1 cells infected with HCV were cultured in the medium containing the compound of examples serially diluted. Three days later, the cells were harvested and the intracellular luciferase activity was measured using Renilla luciferase assay system (Promega). Finally, the luciferase activity was normalized with those obtained from the negative control cells (mock-treated cells).

[3] = tested on: HCV genotype 1b replicon with NS5A Y93H mutation; assay: Transiently transfected assay of genotype 1b resistance mutant RNA Y93H; conditions: Hepatitis C virus, Huh-7.5.1, 72 h, read-out: HCV Mutation Y93H
From the text: (§1) <Experimental Example 3> Transiently Transfected Assay of Genotype 1b Resistance Mutant RNAs
(§2) Replicon genomes substituted with Y93H, L31V and L31V+Y93H (double mutant), the resistance mutants to Daclatasvir with mutations at the NS5A protein domain 1.
(§3) These HCV resistance mutant genomes were linearized with scal restriction enzyme, and then the mutated HCV RNA was synthesized through in vitro transcription. Huh 7.5.1 cells were individually electroporated with HCV RNA with resistant mutations and plated in a 12 well plate. After 4 hours, Huh7.5.1 cells were seeded in DMEM containing the compounds of examples serially diluted for 3 days. Three days later, the cells were harvested and the intracellular luciferase activity was measured. The luciferase activity was normalized with those obtained from the negative control cells (mock-treated cells).

[4] = tested on: HCV genotype 1b replicon with NS5A L31V+Y93H (double mutant); assay: Transiently transfected assay of genotype 1b resistance mutant RNA L31V+Y93H (double mutant); conditions: Hepatitis C virus, Huh-7.5.1, 72 h, read-out: HCV Mutation L31V + Y93H
From the text: as §1, §2, §3

[5] = tested on: HCV genotype 1b replicon with NS5A L31V mutation; assay: Transiently transfected assay of genotype 1b resistance mutant RNA L31V; conditions: Hepatitis C virus, Huh-7.5.1, 72 h, read-out: HCV Mutation L31V
From the text: as §1, §2, §3

[6] = tested on: HCV replicon S52-Feo (genotype 3a); assay: Anti-HCV activity using HCV replicon S52-Feo (genotype 3a) in Huh 7.5.1 cells, luciferase readout; conditions: Hepatitis C virus, 72 h; Huh 7.5.1 cells with S52-Feo replicon, 3 days, firefly luciferase; read-out: HCV wt. GT-3a

Compound	EC50 [1] [nM]	EC50 [2] [nM]	EC50 [3] [nM]	EC50 [4] [nM]	EC50 [5] [nM]	EC50 [6] [nM]
CCCCC1(CCCC)c2cc(NC(=O)[C@@H]3CC(=O)CN3C(=O)[C@H](NC(=O)OC)c3ccccc3)ccc2-c2ccc(NC(=O)[C@@H]3CC(=O)CN3C(=O)[C@H](NC(=O)OC)c3ccccc3)cc21 [Example 6, dimethyl ((1R,1′R)-((5S,5′S)-(((9,9-dibutyl-9H-fluorene-2,7-diyl)bis(azanediyl))bis(carbonyl))bis(3-oxopyrrolidine-5,1-diyl))bis(2-oxo-1-phenylethane-2,1-diyl))dicarbamate]	0.01 to 0.1	0.1 to 1	0.1 to 1	1 to 100	0.001 to 0.01	0.01 to 0.1
CCCC1(CCC)c2cc(NC(=O)[C@@H]3CCCN3C(=O)[C@H](NC(=O)OC)c3ccccc3)ccc2-c2ccc(-c3cnc([C@@H]4CCCN4C(=O)[C@@H](NC(=O)OC)C(C)C)[nH]3)cc21 [Example 3, methyl ((S)-1-((S)-2-(5-(9,9-dipropyl-7-((S)-1-((R)-2-((methoxycarbonyl)amino)-2-phenylacetyl)pyrrolidine-2-carboxyamido)-9H-fluorene-2-yl)-1H-imidazole-2-yl)pyrrolidine-1-yl)-3-methyl-1-oxobutane-2-yl)carbamate]	0.01 to 0.1	0.01 to 0.1	0.01 to 0.1	1 to 100	0.01 to 0.1	0.01 to 0.1
CCCCC1(CCCC)c2cc(NC(=O)[C@@H]3CC(F)(F)CN3C(=O)[C@H](NC(=O)OC)c3ccccc3)ccc2-c2ccc(NC(=O)[C@@H]3C[C@@H]4CCC[C@@H]4N3C(=O)[C@H](NC(=O)OC)c3ccccc3)cc21 [Example 24]			1 to 100	1 to 100	0.001 to 0.01	
CCCCC1(CCCC)c2cc(NC(=O)[C@@H]3CC(F)(F)CN3C(=O)[C@H](NC(=O)OC)c3ccccc3)ccc2-c2ccc(NC(=O)[C@@H]3CC(F)(F)CN3C(=O)[C@H](NC(=O)OC)c3ccccc3)cc21 [Example 20, dimethyl ((1R,1′R)-((5S,5′S)-(((9,9-dibutyl-9H-fluorene-2,7-diyl)bis(azanediyl))bis(carbonyl))bis(3,3-difluoropyrrolidine-5,1-diyl))bis(2-oxo-1-phenylethane-2,1-diyl))dicarbamate]	0.001 to 0.01	1 to 100	1 to 100		0.01 to 0.1	0.01 to 0.1
CCCCC1(CCCC)c2cc(NC(=O)[C@@H]3CCCN3C(=O)[C@H](NC(=O)OC)c3ccccc3)ccc2-c2ccc(-c3cnc([C@@H]4CCCN4C(=O)[C@@H](NC(=O)OC)C(C)C)[nH]3)cc21 [Example 9, methyl ((S)-1-((S)-2-(5-(9,9-dibutyl-7-((S)-1-((R)-2-((methoxycarbonyl)amino)-2-phenylacetyl)pyrrolidine-2-carboxyamido)-9H-fluorene-2-yl)-1H-imidazole-2-yl)pyrrolidine-1-yl)-3-methyl-1-oxobutane-2-yl)carbamate]	0.001 to 0.01	0.01 to 0.1	0.01 to 0.1	0.1 to 1	0.01 to 0.1	0.01 to 0.1
CCCCCC1(CCCCC)c2cc(NC(=O)[C@@H]3CCCN3C(=O)[C@H](NC(=O)OC)c3ccccc3)ccc2-c2ccc(NC(=O)[C@@H]3CCCN3C(=O)[C@H](NC(=O)OC)c3ccccc3)cc21 [Example 11, dimethyl ((1R,1′R)-((2S,2′S)-(((9,9-dipentyl-9H-fluorene-2,7-diyl)bis(azanediyl))bis(carbonyl))bis(pyrrolidine-2,1-diyl))bis(2-oxo-1-phenylethane-2,1-diyl))dicarbamate]	0.001 to 0.01	1 to 100	1 to 100	1 to 100	0.001 to 0.01	0.01 to 0.1
CCCCC1(CCCC)c2cc(NC(=O)[C@@H]3C[C@H]4CCC[C@H]4N3C(=O)[C@H](NC(=O)OC)c3ccccc3)ccc2-c2ccc(NC(=O)[C@@H]3C[C@H]4CCC[C@H]4N3C(=O)[C@H](NC(=O)OC)c3ccccc3)cc21 [Example 22, dimethyl ((1R,1′R)-((2S,2′S,3aR,3a′R,6aR,6a′R)-(((9,9-dibutyl-9H-fluorene-2,7-diyl)bis(azanediyl))bis(carbonyl))bis(hexahydrocyclopenta[b]pyrrole-2,1(2H)-diyl))bis(2-oxo-1-phenylethane-2,1-diyl))dicarbamate]	0.001 to 0.01	1 to 100	0.01 to 0.1	> 100	0.001 to 0.01	0.01 to 0.1
COC(=O)N[C@H](C(=O)N1CCC[C@@H]1C(=O)Nc1ccc2c(c1)C(CCCCC(F)(F)F)(CCCCC(F)(F)F)c1cc(NC(=O)[C@@H]3CCCN3C(=O)[C@H](NC(=O)OC)c3ccccc3)ccc1-2)c1ccccc1 [Example 5, methyl ((R)-2-((S)-2-((7-((R)-1-((S)-2-((methoxycarbonyl)amino)-2-phenylacetyl)pyrrolidine-2-carboxyamido)-9,9-bis(5,5,5-trifluoropentyl)-9H-fluorene-2-yl)carbamoyl)pyrrolidine-1-yl)-2-oxo-1-phenylethyl)carbamate]	0.001 to 0.01	1 to 100	> 100	> 100	0.1 to 1	0.01 to 0.1
COC(=O)N[C@@H](C(=O)N1CCC[C@H]1C(=O)Nc1ccc2c(c1)C(CCCC(F)(F)F)(CCCC(F)(F)F)c1cc(NC(=O)[C@@H]3CCCN3C(=O)[C@H](NC(=O)OC)c3ccccc3)ccc1-2)c1ccccc1 [Example 4, dimethyl ((1R,1′R)-((2S,2′S)-(((9,9-bis(4,4,4-trifluorobutyl)-9H-fluorene-2,7-diyl)bis(azanediyl))bis(carbonyl))bis(pyrrolidine-2,1-diyl))bis(2-oxo-1-phenylethane-2,1-diyl))dicarbamate]	0.001 to 0.01	1 to 100	> 100	1 to 100	0.1 to 1	0.01 to 0.1
CCCCC1(CCCC)c2cc(NC(=O)[C@@H]3CC4(CC4)CN3C(=O)[C@H](NC(=O)OC)c3ccccc3)ccc2-c2ccc(NC(=O)[C@@H]3C[C@H]4CCC[C@H]4N3C(=O)[C@H](NC(=O)OC)c3ccccc3)cc21 [Example 25, methyl ((R)-2-((S)-6-((9,9-dibutyl-7-((2S,3aR,6aR)-1-((R)-2-((methoxycarbonyl)amino)-2-phenylacetyl)octahydrocyclopenta[b]pyrrole-2-carboxyamido)-9H-fluorene-2-yl)carbamoyl)-5-azaspiro[2.4]heptane-5-yl)-2-oxo-1-phenylethyl)carbamate]	0.001 to 0.01	1 to 100	1 to 100	1 to 100	0.001 to 0.01	0.01 to 0.1
CCCCC1(CCCC)c2cc(NC(=O)[C@@H]3C[C@@H](O)CN3C(=O)[C@H](NC(=O)OC)c3ccccc3)ccc2-c2ccc(-c3cnc([C@@H]4CCCN4C(=O)[C@@H](NC(=O)OC)C(C)C)[nH]3)cc21 [Example 31, methyl((S)-1-((S)-2-(5-(9,9-dibutyl-7-((2S,4R)-4-hydroxy-1-((R)-2-((methoxycarbonyl)amino)-2-phenylacetyl)pyrrolidine-2-carboxyamido)-9H-fluorene-2-yl)-1H-imidazole-2-yl)pyrrolidine-1-yl)-3-methyl-1-oxobutane-2-yl)carbamate]	0.01 to 0.1	0.1 to 1	0.01 to 0.1	1 to 100	0.1 to 1	0.1 to 1
CCCCC1(CCCC)c2cc(NC(=O)[C@@H]3CC(F)(F)CN3C(=O)[C@H](NC(=O)OC)c3ccccc3)ccc2-c2ccc(NC(=O)[C@@H]3CC4(CC4)CN3C(=O)[C@H](NC(=O)OC)c3ccccc3)cc21 [Example 23]			1 to 100	> 100	0.001 to 0.01	
